Results: publication PMC8237267 (Journal of Medicinal Chemistry, 2021)
Entries after “also recorded” stand apart in the source; their conditions may differ.

Columns and labels:
HDAC3 = target: T1, HDAC3 (Homo sapiens, UniProt O15379); experiment: HDAC EMSA activity assay (Nanosyn); type: biochemical; details: read-out: IC50 HDAC3
T1 construct: The full-length human HDACs were recombinantly expressed and purified from SF9 insect cells; host or cells: SF9 insect cells

[1] = Glutathione stability / reactivity assay; type: in vitro ADME; details: GSH adduct formation by LC/MS/MS; KT-531 up to 24 h
Procedure: Although covalent modification of HDAC6 was not observed (Figure S2), the PFBS group is susceptible to nucleophilic aromatic substitution by biological nucleophiles. A previously described high-throughput in vitro glutathione-reactivity assay was conducted, where compounds were incubated in the presence of glutathione (GSH) and the formation of a GSH-compound adduct was monitored over time via LC/MS/MS.[50]
Compound was added to PBS and 5 mM GSH to reach a final concentration of 5 μM. […] Samples were vortexed and centrifuged for 45 min at 3220g. Aliquots were diluted by ultrapure water, and used for LC/MS/MS analysis. Peak area ratios were determined and percent compounds remaining was calculated by the following equation: [drawing 1] where peak area ratio (t min) is the peak area ratio of control and test compounds at t min; peak area ratio0min is the peak area ratio of control and test compounds at the zero time point. In vitro half-life (t1/2) = −(0.693/k).

HDAC6 = target: T2, HDAC6 (Homo sapiens, UniProt Q9UBN7); experiment: Time-dependent IC50 assay with preincubation (0-6 h); type: biochemical; details: 6 h time-dependent assay
T2 sequence (Q9UBN7 1-1215): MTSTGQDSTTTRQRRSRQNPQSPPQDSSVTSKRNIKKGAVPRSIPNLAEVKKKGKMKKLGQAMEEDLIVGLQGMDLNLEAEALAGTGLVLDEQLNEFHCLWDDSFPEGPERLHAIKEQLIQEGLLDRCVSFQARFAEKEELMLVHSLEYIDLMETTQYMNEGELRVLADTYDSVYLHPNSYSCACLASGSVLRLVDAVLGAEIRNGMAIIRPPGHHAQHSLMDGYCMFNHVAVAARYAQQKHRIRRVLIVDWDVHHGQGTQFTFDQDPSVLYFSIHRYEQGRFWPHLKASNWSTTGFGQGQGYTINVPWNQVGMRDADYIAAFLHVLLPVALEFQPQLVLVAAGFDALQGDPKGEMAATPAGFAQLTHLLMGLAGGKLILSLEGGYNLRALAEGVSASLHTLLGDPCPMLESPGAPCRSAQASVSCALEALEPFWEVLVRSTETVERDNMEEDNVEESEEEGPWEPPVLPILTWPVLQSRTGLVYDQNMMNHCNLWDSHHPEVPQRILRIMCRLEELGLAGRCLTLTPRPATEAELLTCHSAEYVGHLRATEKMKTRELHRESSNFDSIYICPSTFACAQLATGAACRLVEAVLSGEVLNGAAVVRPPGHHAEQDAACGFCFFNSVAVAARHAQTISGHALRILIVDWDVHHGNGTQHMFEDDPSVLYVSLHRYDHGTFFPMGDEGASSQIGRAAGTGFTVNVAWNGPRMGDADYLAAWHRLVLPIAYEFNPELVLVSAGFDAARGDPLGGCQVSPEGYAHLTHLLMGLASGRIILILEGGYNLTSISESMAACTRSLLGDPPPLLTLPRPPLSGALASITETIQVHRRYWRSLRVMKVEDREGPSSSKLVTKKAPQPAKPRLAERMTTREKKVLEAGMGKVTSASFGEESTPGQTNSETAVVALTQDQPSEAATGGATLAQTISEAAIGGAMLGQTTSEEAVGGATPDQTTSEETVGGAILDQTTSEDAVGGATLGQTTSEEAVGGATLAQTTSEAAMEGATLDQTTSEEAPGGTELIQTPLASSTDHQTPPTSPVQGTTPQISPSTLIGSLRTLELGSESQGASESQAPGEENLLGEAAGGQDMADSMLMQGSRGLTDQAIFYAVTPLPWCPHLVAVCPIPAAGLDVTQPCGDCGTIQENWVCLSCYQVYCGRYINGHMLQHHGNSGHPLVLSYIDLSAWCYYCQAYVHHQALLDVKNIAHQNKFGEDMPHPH
Procedure: The binding kinetics profile of KT-531 was also investigated by determining the association (kon)/dissociation (koff) rates as well as residence time parameters. The in vitro residence time (1/kobs) for the KT-531–HDAC6 complex was determined to be 23.18 min, as compared to 10.72 min for 1.

[2] = test system: cleavage of PARP-1 and Caspase-3; experiment: Western blot of apoptosis markers in MV4-11 cells; type: cell-based; details: MV4-11, 6 h, 0.5 μM
Procedure: Briefly, MV4-11 cells were incubated with inhibitors prior to cell lysis with radioimmunoprecipitation assay (RIPA) buffer (20 mM Tris pH 7.4, 150 mM NaCl, 0.5% deoxycholate, 1% Triton X-100, and 0.1% sodium dodecyl sulfate (SDS)). Total protein content was determined through a BCA assay (ThermoFisher), resolved via a 4–20% polyacrylamide SDS gel, and transferred to a nitrocellulose membrane (Bio-Rad). The membranes were blocked with a 5% solution (skimmed milk powder in PBS-T). This was followed by incubation at 4 °C (overnight) with the following antibodies: acetylated α-tubulin mouse monoclonal (MABT868, EMD Millipore), acetylated histone H3 (Ac-Lys18, 07–354, Sigma), PARP-1 (ab227244, Abcam), apoptosis Western blot cocktail (136812, Abcam), cleaved PARP-1 (ab32561, Abcam), and HSC70 (sc-7298, Santa Cruz). Following overnight incubation, horseradish peroxidase (HRP)-conjugated goat anti-mouse IgG secondary antibody (7076, Cell Signaling) or HRP-linked anti-rabbit IgG secondary antibody (7074, Cell Signaling) was applied to the membrane in a 1:5000 dilution. The bands were visualized using clarity Western ECL substrate luminal/enhancer solution and peroxide solution. Western blotting analysis was carried out using Image lab software (Bio-Rad).[47],[50],[70]

[3] = test system: primary T-PLL patient samples; experiment: Ex vivo drug sensitivity (DSS) in primary T-PLL patient samples; type: cell-based, human; details: p = 0.0007, Wilcoxon test
Text: Primary T-PLL cells were isolated from peripheral blood (PB) of 10 T-PLL patients. All patients were diagnosed according to WHO criteria based on clinical features, immunophenotyping (flow cytometry and histochemisty; including TCL1 expression), and FISH/karyotyping.[71],[72] Samples were obtained from patients under IRB-approved protocols following written informed consent according to the Declaration of Helsinki. Collection and use of patient material have been approved for research purpose by the ethics committee of the University Hospital of Cologne (EudraCT-Nr.: #2008-001421-34 and AZ11-319) and Helsinki (303/13/03/01/2011).
PB mononuclear cells (PBMCs) of T-PLL samples were obtained by density gradient centrifugation (Histopaque; Sigma-Aldrich). All drug screening in primary T-PLL patient samples were conducted as previously described.[34],[73]

T1 sequence (O15379 whole entry): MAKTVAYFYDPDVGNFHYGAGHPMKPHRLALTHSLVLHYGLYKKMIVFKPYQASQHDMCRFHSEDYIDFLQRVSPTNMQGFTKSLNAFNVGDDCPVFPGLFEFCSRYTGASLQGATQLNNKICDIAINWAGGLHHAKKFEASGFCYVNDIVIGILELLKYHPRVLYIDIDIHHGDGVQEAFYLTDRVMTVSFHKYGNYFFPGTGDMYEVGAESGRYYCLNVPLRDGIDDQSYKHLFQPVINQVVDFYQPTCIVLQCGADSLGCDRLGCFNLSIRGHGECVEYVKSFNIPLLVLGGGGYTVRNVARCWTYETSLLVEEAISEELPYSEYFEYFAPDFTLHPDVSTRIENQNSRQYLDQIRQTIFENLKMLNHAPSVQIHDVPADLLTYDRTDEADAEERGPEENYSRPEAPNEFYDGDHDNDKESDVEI
T1 sequence (Q9Y618 395-489 partner limits assumed): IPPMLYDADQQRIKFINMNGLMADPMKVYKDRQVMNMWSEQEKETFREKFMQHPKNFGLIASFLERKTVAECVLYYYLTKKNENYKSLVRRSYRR

## O=C(NO)c1ccc(CN(C2CC2)S(=O)(=O)c2cc(F)c(F)c(F)c2F)cc1 [Compound 14, 4-(((N-Cyclopropyl-2,3,4,5-tetrafluorophenyl)sulfonamido)methyl)-N-hydroxybenzamide]
HDAC3
  IC50: > 1 µM
[1]
  reactivity with glutathione: no discernible reactivity with GSH; also recorded: no discernible SNAr reaction with GSH
HDAC6
  reversibility of binding (IC50 over preincubation time): unchanged IC50 values
[2]
  cleavage of PARP-1 and Caspase-3: Cleavage of PARP-1 and Caspase-3
[3]
  drug response (DSS) versus vorinostat (SAHA): more potent drug response
